Measured values from patent publication US6355799B1, “Substituted benzene compounds, process for their preparation, and herbicidal and defoliant compositions containing them” (ISK Americas Incorporated, priority 1997, dated 2002).

Assays:
Format in all cases: in vivo
[1] = tested on: lambsquarters (Chenopodium album, CHEAL); assay: Post-emerge test, greenhouse herbicide activity screening; details: post-emerge, 14 days after application, rating scale 0-100
How it was run: (§1)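 Visual ratings on a 0-100 scale (0 no damage, 100 all plants dead) were taken at 14 days after treatment. Rates of 15-1000 g ai/ha in acetone, 187 l/ha, were sprayed onto soil one day after planting (pre-emerge) or onto 2-3 leaf plants with 0.25% v/v surfactant (post-emerge).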

[2] = tested on: velvetleaf (Abutilon theophrasti, ABUTH); assay: as above; details: post-emerge, 14 days after application, rating scale 0-100
How it was run: as §1

[3] = tested on: ivyleaf morningglory (Ipomoea hederacea, IPOHE); assay: as above; details: post-emerge, 14 days after application, rating scale 0-100
How it was run: as §1

[4] = tested on: common ragweed (Ambrosia artemisizfolia L., AMBEL); assay: as above; details: post-emerge, 14 days after application, rating scale 0-100
How it was run: as §1

[5] = tested on: barnyardgrass (Echinochloa crus-galli, ECHCG); assay: as above; details: post-emerge, 14 days after application, rating scale 0-100
How it was run: as §1

[6] = tested on: large crabgrass (Digitaria sanguinalis, DIGSA); assay: as above; details: post-emerge, 14 days after application, rating scale 0-100
How it was run: as §1

[7] = tested on: redroot pigweed (Amaranthus retroflexus, AMARE); assay: as above; details: post-emerge, 14 days after application, rating scale 0-100
How it was run: as §1

[8] = tested on: green foxtail (Setaria viridis, SETVI); assay: as above; details: post-emerge, 14 days after application, rating scale 0-100
How it was run: as §1

[9] = tested on: sicklepod (Cassia obtusifolia, CASOB); assay: as above; details: post-emerge, 14 days after application, rating scale 0-100
How it was run: as §1

[10] = tested on: johnsongrass (Sorghum halepense, SORHA); assay: as above; details: post-emerge, 14 days after application, rating scale 0-100
How it was run: as §1

[11] = tested on: redroot pigweed (Amaranthus retroflexus, AMARE); assay: Pre-emerge test, greenhouse herbicide activity screening; details: rated 14 days after application, 0 = no damage, 100 = complete death
How it was run: as §1

[12] = tested on: lambsquarters (Chenopodium album, CHEAL); assay: as above; details: rated 14 days after application, 0 = no damage, 100 = complete death
How it was run: (§2)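 Herbicidal damage is scored 0 (none) to 100 (complete plant death) two weeks after a simulated field spray. Rates span 15–1000 g ai/ha, delivered in acetone at 187 l/ha. For post-emergence treatments, plants have 2–3 leaves and the spray carries 0.25% v/v non-ionic surfactant.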

[13] = tested on: velvetleaf (Abutilon theophrasti, ABUTH); assay: as above; details: rated 14 days after application, 0 = no damage, 100 = complete death
How it was run: as §2

[14] = tested on: ivyleaf morningglory (Ipomoea hederacea, IPOHE); assay: as above; details: rated 14 days after application, 0 = no damage, 100 = complete death
How it was run: as §2

[15] = tested on: common ragweed (Ambrosia artemisizfolia L., AMBEL); assay: as above; details: rated 14 days after application, 0 = no damage, 100 = complete death
How it was run: as §2

[16] = tested on: barnyardgrass (Echinochloa crus-galli, ECHCG); assay: as above; details: rated 14 days after application, 0 = no damage, 100 = complete death
How it was run: as §2

[17] = tested on: large crabgrass (Digitaria sanguinalis, DIGSA); assay: as above; details: rated 14 days after application, 0 = no damage, 100 = complete death
How it was run: as §2

[18] = tested on: green foxtail (Setaria viridis, SETVI); assay: as above; details: rated 14 days after application, 0 = no damage, 100 = complete death
How it was run: as §2

[19] = tested on: sicklepod (Cassia obtusifolia, CASOB); assay: as above; details: rated 14 days after application, 0 = no damage, 100 = complete death
How it was run: as §2

[20] = tested on: johnsongrass (Sorghum halepense, SORHA); assay: as above; details: rated 14 days after application, 0 = no damage, 100 = complete death
How it was run: as §2

[21] = tested on: field corn (Zea mays L., var. Dekalb 535, CORN); assay: Pre-emerge test, crop safety; details: rated 14 days after application, 0 = no damage, 100 = complete death
How it was run: (§3)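 Compounds in acetone were track-sprayed at 15-1000 g ai/ha (187 l/ha) on sandy loam pots: pre-emerge one day after seeding, post-emerge at 2-3 leaf stage with 0.25% v/v non-ionic surfactant. Phytotoxicity was rated 14 days later on a 0 (no damage) to 100 (complete death) scale.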

[22] = tested on: upland rice (Oryza sp., var. Tebonnet, RICE); assay: Pre-emerge test, crop safety; details: rated 14 days after application, 0 = no damage, 100 = complete death
How it was run: as §3

[23] = tested on: field corn (Zea mays L., var. Dekalb 535, CORN); assay: Post-emerge test, crop safety; details: post-emerge, 14 days after application, rating scale 0-100
How it was run: as §2

[24] = tested on: upland rice (Oryza sp., var. Tebonnet, RICE); assay: Post-emerge test, crop safety; details: post-emerge, 14 days after application, rating scale 0-100
How it was run: as §2

## COc1c(Cl)cc(F)c(-n2c(=O)cc(C(F)(F)F)n(C)c2=O)c1NC(=O)c1c(F)cccc1F [2-47]
[1]; 63 g ai/ha
  phytotoxicity rating CHEAL: 80
[1]; 250 g ai/ha
  phytotoxicity rating CHEAL: 100
[2]; 63 g ai/ha
  phytotoxicity rating ABUTH: 100
[2]; 250 g ai/ha
  phytotoxicity rating ABUTH: 100
[3]; 63 g ai/ha
  phytotoxicity rating IPOHE: 70
[3]; 250 g ai/ha
  phytotoxicity rating IPOHE: 100
[4]; 63 g ai/ha
  phytotoxicity rating AMBEL: 50
[4]; 250 g ai/ha
  phytotoxicity rating AMBEL: 90
[5]; 63 g ai/ha
  phytotoxicity rating ECHCG: 0
[5]; 250 g ai/ha
  phytotoxicity rating ECHCG: 10
[6]; 63 g ai/ha
  phytotoxicity rating DIGSA: 0
[6]; 250 g ai/ha
  phytotoxicity rating DIGSA: 0
[7]; 63 g ai/ha
  phytotoxicity rating AMARE: 90
[7]; 250 g ai/ha
  phytotoxicity rating AMARE: 100
[8]; 63 g ai/ha
  phytotoxicity rating SETVI: 20
[8]; 250 g ai/ha
  phytotoxicity rating SETVI: 30
[9]; 63 g ai/ha
  phytotoxicity rating CASOB: 70
[9]; 250 g ai/ha
  phytotoxicity rating CASOB: 100
[10]; 63 g ai/ha
  phytotoxicity rating SORHA: 0
[10]; 250 g ai/ha
  phytotoxicity rating SORHA: 0
[11]; 63 g ai/ha
  Pre-emerge Herbicidal Activity, phytotoxicity rating (0-100), AMARE: 100
[11]; 250 g ai/ha
  Pre-emerge Herbicidal Activity, phytotoxicity rating (0-100), AMARE: 100
[12]; 63 g ai/ha
  Pre-emerge Herbicidal Activity, phytotoxicity rating (0-100), CHEAL: 100
[12]; 250 g ai/ha
  Pre-emerge Herbicidal Activity, phytotoxicity rating (0-100), CHEAL: 100
[13]; 63 g ai/ha
  Pre-emerge Herbicidal Activity, phytotoxicity rating (0-100), ABUTH: 100
[13]; 250 g ai/ha
  Pre-emerge Herbicidal Activity, phytotoxicity rating (0-100), ABUTH: 100
[14]; 63 g ai/ha
  Pre-emerge Herbicidal Activity, phytotoxicity rating (0-100), IPOHE: 100
[14]; 250 g ai/ha
  Pre-emerge Herbicidal Activity, phytotoxicity rating (0-100), IPOHE: 100
[15]; 63 g ai/ha
  Pre-emerge Herbicidal Activity, phytotoxicity rating (0-100), AMBEL: 50
[15]; 250 g ai/ha
  Pre-emerge Herbicidal Activity, phytotoxicity rating (0-100), AMBEL: 100
[16]; 63 g ai/ha
  Pre-emerge Herbicidal Activity, phytotoxicity rating (0-100), ECHCG: 0
[16]; 250 g ai/ha
  Pre-emerge Herbicidal Activity, phytotoxicity rating (0-100), ECHCG: 99
[17]; 63 g ai/ha
  Pre-emerge Herbicidal Activity, phytotoxicity rating (0-100), DIGSA: 100
[17]; 250 g ai/ha
  Pre-emerge Herbicidal Activity, phytotoxicity rating (0-100), DIGSA: 100
[18]; 63 g ai/ha
  Pre-emerge Herbicidal Activity, phytotoxicity rating (0-100), SETVI: 100
[18]; 250 g ai/ha
  Pre-emerge Herbicidal Activity, phytotoxicity rating (0-100), SETVI: 100
[19]; 63 g ai/ha
  Pre-emerge Herbicidal Activity, phytotoxicity rating (0-100), CASOB: 90
[19]; 250 g ai/ha
  Pre-emerge Herbicidal Activity, phytotoxicity rating (0-100), CASOB: 100
[20]; 63 g ai/ha
  Pre-emerge Herbicidal Activity, phytotoxicity rating (0-100), SORHA: 60
[20]; 250 g ai/ha
  Pre-emerge Herbicidal Activity, phytotoxicity rating (0-100), SORHA: 90
[21]; 63 g ai/ha
  Pre-emerge phytotoxicity rating (0-100), crop damage, CORN: 40
[21]; 250 g ai/ha
  Pre-emerge phytotoxicity rating (0-100), crop damage, CORN: 99
[22]; 63 g ai/ha
  Pre-emerge phytotoxicity rating (0-100), crop damage, RICE: 70
[22]; 250 g ai/ha
  Pre-emerge phytotoxicity rating (0-100), crop damage, RICE: 95
[23]; 63 g ai/ha
  phytotoxicity rating CORN: 10
[23]; 250 g ai/ha
  phytotoxicity rating CORN: 15
[24]; 63 g ai/ha
  phytotoxicity rating RICE: 20
[24]; 250 g ai/ha
  phytotoxicity rating RICE: 45
